Reference: US7300937B2, “Derivatives of cyano-aryl (or cyanoheteroaryl)-carbonyl-piperazinyl-pyrimidines, their preparation and application as medication” (Laboratorios del Dr. Esteve, S.A., priority 2001, dated 2007)
Structures can show the parent of a compound that is named as a salt. Marks after values point to notes of the source that are not given here.

Experiments:
mouse = assay: Anaesthetic activity in mice (IV, loss of three reflexes); settings: for time of anaesthesia: average time
Procedure: The anaesthetic activity was determined after intravenous (IV) administration of the product under study in three different doses (15, 10 and 5 mg/kg) in the caudal vein of the mouse. The percentage of anaesthetised animals was recorded and the average time of anaesthesia calculated. Mice were considered to be anaesthetised when losing the three reflexes: positional reflex, response to painful stimulus reflex (prick in the tail) and palpebral reflex.

[1] = system: convulsions induced by IV injection of pentamethylentetrazol (cardiazol); assay: Anticonvulsive activity in mice (convulsions due to cardiazol); type: in vivo, mouse; settings: for ED50: Mus musculus; for % Activity: mice, cardiazol 45 mg/kg IV
dog = assay: Anaesthetic activity in dogs (IV infusion); settings: IV infusion 5 mg/ml/minute until fully anaesthetised
Procedure: A saline solution of the product in study was perfused by means of a perfusion pump in a concentration and rate of 5 mg/ml/minute, through a cannula inserted in a vein of the front leg.

rat = assay: Anaesthetic activity in rats (IV infusion to maintain full anaesthesia for 1 hour); settings: IV infusion required to maintain full anaesthesia for 1 hour
Procedure: In this test, through the cannulated caudal vein of a rat was perfused a solution of the products under study with a concentration of 10 mg/kg. The rate of perfusion was varied to keep the rats anaesthetised for 1 hour.

mice = assay: Sedative activity in mice (behaviour observation); type: in vivo, mouse; design: unit not given here; settings: 80 mg/kg i.p.
Procedure: The sedative activity was studied by observing the animals' behaviour after intraperitoneal (i.p.) administration of a dose of 80 mg/kg. This observation was conducted at different times, allowing to know the sedative effect and its duration.

[2] = system: body tone and abdominal tone of the rats; assay: Myorelaxant activity in the IRWIN test in rats; type: in vivo, rat; settings: 80 mg/kg ip
Procedure: The activity as muscular relaxant of the products of the invention was studied, by evaluating the effect on body tone and abdominal tone of the rats, following the method described by S. IRWIN (Gordon Res. Conf. on Medicinal Chem.,1959. p.133). The rats received the products under study in a dose of 80 mg/kg ip, and at several times after administration (½, 1, 2, 3, 4 and 5 hours) the body and abdominal tone were evaluated, comparing muscle tension to that of the control animals.

SMILES	% anaesthetised (mouse; 5 mg/kg iv) [%]	% anaesthetised (mouse; 10 mg/kg iv) [%]	time of anaesthesia (mouse; 10 mg/kg iv)	% anaesthetised (mouse; 15 mg/kg iv) [%]	time of anaesthesia (mouse; 15 mg/kg iv)	ED50 [1] [mg/kg]	% Activity ([1]; 20 mg/kg i.p.) [%]	% Activity ([1]; 40 mg/kg i.p.) [%]	% Activity ([1]; 80 mg/kg i.p.) [%]	Anaesthetic dose (dog)	Total dose (rat) [mg/kg]	Sedative activity (mice; 30′)	Sedative activity (mice; 1 h)	Sedative activity (mice; 2 h)	Sedative activity (mice; 3 h)	Sedative activity (mice; 4 h)	Sedative activity (mice; 5 h)	Sedative activity (mice; 24 h)	% muscular relaxation ([2]; after 1 h.) [%]	% muscular relaxation ([2]; after 2 h.) [%]	also measured
CCOc1ccnc(N2CCN(C(=O)c3ccccc3C#N)CC2)n1 (as salt: HCl) [Example 4, 2-[4-(2-cyanobenzoyl)-1-piperazinyl]-4-ethoxypyrimidine hydrochloride]	–	–	–	–	–	–	–	–	–	–	–	–	–	–	–	–	–	–	–	–	melting point: 147 to 151 °C
CCOc1ccnc(N2CCN(C(=O)c3ccccc3C#N)CC2)n1 [Example 4, 2-[4-(2-cyanobenzoyl)-1-piperazinyl]-4-ethoxypyrimidine hydrochloride]	0	100	2.6 ′	100	5.8 ′	25.1	40	69	87	10.1 mg/kg	56.8	90	75	75	35	0	0	0	100	100	% muscular relaxation ([2]; after 3 h.): 70%; % muscular relaxation ([2]; after 4 h.): 33%; % muscular relaxation ([2]; after 5 h.): 0%; % muscular relaxation ([2]; after ½ h.): 100%
CC(C)c1cccc(C(C)C)c1O [Propofol, reference compound]	0	80	1 ′	80	1.3 ′	32.5	33	46	100	21.6* mg/kg	67	–	–	–	–	–	–	–	100	70	% muscular relaxation ([2]; after 3 h.): 0%; % muscular relaxation ([2]; after 4 h.): 0%; % muscular relaxation ([2]; after 5 h.): 0%; % muscular relaxation ([2]; after ½ h.): 100%
Cc1ccc(-c2nc3ccc(C)cn3c2CC(=O)N(C)C)cc1 [Zolpidem, reference compound]	–	–	–	–	–	–	–	–	–	–	–	100	90	30	0	0	0	0	–	–	–
